The target of experiment [1] is T1, Arabidopsis HPPD (Arabidopsis thaliana, UniProt P93836).
T1 construct: His6 (N); made in house; host or cells: E. coli BL21 (DE3)
T1 sequence (P93836 1-445): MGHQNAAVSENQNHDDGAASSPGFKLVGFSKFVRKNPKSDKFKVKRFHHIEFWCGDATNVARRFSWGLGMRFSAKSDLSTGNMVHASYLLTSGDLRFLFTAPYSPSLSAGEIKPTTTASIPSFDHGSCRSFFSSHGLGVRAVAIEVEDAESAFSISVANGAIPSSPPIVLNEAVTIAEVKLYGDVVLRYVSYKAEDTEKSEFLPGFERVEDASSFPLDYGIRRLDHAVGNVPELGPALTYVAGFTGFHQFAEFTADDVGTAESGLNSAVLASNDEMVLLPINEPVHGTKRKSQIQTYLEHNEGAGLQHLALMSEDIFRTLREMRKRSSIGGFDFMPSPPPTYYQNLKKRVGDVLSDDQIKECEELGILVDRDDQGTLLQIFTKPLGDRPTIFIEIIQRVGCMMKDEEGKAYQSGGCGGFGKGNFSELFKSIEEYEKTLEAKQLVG
Nature of the experiment: HPPD activity assay (homogentisic acid by HPLC), wildtype enzyme. The experiment is classed as biochemical. Conditions: Table 11, calculated from IC50 with Cheng-Prusoff equation, read-out: dissociation constant Ki. The method, then: HPPD produces homogentisic acid and CO2 from 4-hydroxyphenylpyruvate (4-HPP) and O2. The activity assay for HPPD is based on the analysis of homogentisic acid by reversed phase HPLC.
The assay mixture can contain 150 mM potassium phosphate buffer pH 7.0, 50 mM L-ascorbic acid, 1 μM FeSO4 and 7 μg of purified enzyme in a total volume of 1 ml.
Inhibitors are dissolved in DMSO (dimethylsulfoxide) to a concentration of 20 mM or 0.5 mM, respectively. From this stock solution serial five-fold dilutions are prepared in DMSO, which are used in the assay. The respective inhibitor solution accounts for 1% of the assay volume. Thus, final inhibitor concentrations range from 200 μM to 2.5 nM or from 5 μM to 63 pM, respectively.
After a preincubation of 30 min the reaction is started by adding 4-HPP to a final concentration of 0.1 mM. The reaction is allowed to proceed for 120 min at room temperature. The reaction is stopped by addition of 100 μl of 4.5 M phosphoric acid.
The sample is extracted on an Oasis® HLB cartridge 3 cc/60 mg (Waters) that was preequilibrated with 63 mM phosphoric acid. L-ascorbic acid is washed out with 3 ml of 63 mM phosphoric acid. […]
10 μl of the eluate is analyzed by reversed phase HPLC on a Symmetry® C18 column (particle size 3.5 μm, dimensions 4.6×100 mm; Waters) using 5 mM H3PO4/15% ethanol (w/w) as an eluent.
Homogentisic acid is detected electrochemically and quantified by measuring peak areas (Empower software; Waters).
Activities are normalized by setting the uninhibited enzyme activity to 100%. IC50 values are calculated using non-linear regression. […]
5 μl of the cleared sample is analyzed on an Atlantis T3 column (particle size 3 μm, dimensions 3×50 mm; Waters) by isocratic elution using 90% 10 mM NaH2PO4 pH 2.2, 10% methanol (v/v).
HGA is detected electrochemically at 750 mV (mode: DC; polarity: positive) and quantified by integrating peak areas (Empower software; Waters).
Inhibitors are dissolved in DMSO (dimethylsulfoxide) to a concentration of 0.5 mM. […] IC50 values are calculated using non-linear regression. […]

Experiment [2] relates to Chlamydomonas strain CMr04. Nature of the experiment: Growth inhibition of Chlamydomonas strains (tolerance). The experiment is classed as cell-based, Chlamydomonas reinhardtii. Conditions: read-out: IC50 of growth inhibition. The method, then: (§1) Algae cells of Chlamydomonas reinhardtii strains CC-503 and CC-1691 (Duke University, Durham, USA) are propagated in TAP medium (Gorman and Levine (1965) PNAS 54: 1665-1669) by constant shaking at 100 rpm, 22° C. and 30 μmol Phot*m^−2*[…] light illumination. Scenedesmus obliquus (University of Gottingen, Germany) are propagated in algae medium as described (Boger and Sandmann, (1993) In: Target assays for modern herbicides and related phytotoxic compounds, Lewis Publishers) under same culturing conditions as mentioned for Chlamydomonas. Compound screening is performed at 450 μmol Phot*m^−2*[…] illumination.
(§2) Sensitive strains of Chlamydomonas reinhardtii or Scenedesmus obliquus (Tables 14, 15) are mutated with 0.14 […] (EMS) for 1 h as described by Loppes (1969, Mol Gen Genet. 104: 172-177) Tolerant strains are identified by screening of mutagenized cells on solid nutrient solution plates containing “coumarone-derivative herbicides” or other HPPD inhibiting herbicides at wildype-lethal concentrations. Examples of the data obtained are depicted in Table 16 and FIG. 2.

Experiment [3] relates to Chlamydomonas strain CMr10. Described as above. It counts as cell-based, Chlamydomonas reinhardtii. As to conditions: read-out: IC50 of growth inhibition. On the procedure: as §1, §2
The test system of experiment [4] is Chlamydomonas strain CMr06. The description is as above. It counts as cell-based, Chlamydomonas reinhardtii. Conditions: read-out: IC50 of growth inhibition. On the procedure: as §1, §2
The test system of experiment [5] is Chlamydomonas strain CMr05. The experiment is described as above. The experiment is classed as cell-based, Chlamydomonas reinhardtii. As to conditions: read-out: IC50 of growth inhibition. On the procedure:
as §1, §2

Experiment [6] has as its system Chlamydomonas strain CC1961 wild-type. The description is as above. It counts as cell-based, Chlamydomonas reinhardtii. Conditions: read-out: IC50 of growth inhibition. The method, then:
as §1, §2

Experiment [7] deals with Chlamydomonas strain CMr13. The description is as above. It counts as cell-based, Chlamydomonas reinhardtii. As to conditions: read-out: IC50 of growth inhibition. On the procedure:
as §1, §2

`CC1=NOC(c2c(Cl)ccc(C3=C(O)c4ncccc4N(CC(F)F)S3(=O)=O)c2Cl)C1` (centres unmarked) [Inhibitor 1, 3-[2,4-dichloro-3-(3-methyl-4,5-dihydroisoxazol-5-yl)phenyl]-1-(2,2-difluoroethyl)-2,2-dioxo-pyrido[3,2-c]thiazin-4-ol]: in experiment [1], the Ki was 0.003 µM. The IC50 in experiment [2] was more than 1000 µM; in experiment [3], more than 1000 µM; in experiment [4], more than 1000 µM; in experiment [5], more than 1000 µM; in experiment [6] it was 620 µM; in experiment [7], 810 µM.
Take `Cc1c(C(=O)c2cnn(C)c2O)ccc(S(C)(=O)=O)c1C1=NOCC1` [Topramezone, reference compound]: the Ki in experiment [1] was 0.004 µM. In addition, the 50% inhibitory concentration (IC50) in experiment [2] came out at 390 µM; in experiment [3], 920 µM; in experiment [4], 860 µM; in experiment [5], 710 µM; in experiment [6], 140 µM; in experiment [7], 200 µM.

These data come from patent US20130053243A1, “PLANTS HAVING INCREASED TOLERANCE TO HERBICIDES” (BASF SE, priority 2010, published 2013).
